Common to all, as to type: cell-based, Jatropha Curcas
The subject of experiment [1] is anthers of Jatropha. The experiment in a line: Callus induction (callus formation) from anthers on callus induction composition. The procedure: The flower bud of about 2.5 mm were selected for excision of anthers. The flower buds were blot dried with several layers of sterile filter papers to remove excess moisture.
The anthers were excised from unopened flower buds in the laminar air flow (sterile hood) under aseptic conditions.
About 10 to 12 anthers were inoculated into culture tubes comprising the composition of the present disclosure for callus induction. The inoculated culture tubes were incubated in dark at a temperature of about 25±1° C. for a period ranging from about 25 days to 30 days. The culture tubes were replenished with the composition every three weeks for high frequency induction of callus. […]

Experiment [2] has as its system embryogenic calli of Jatropha anthers. The experiment in a line: Plant regeneration from embryogenic calli of Jatropha anthers. The procedure: The calli of size ranging from about 0.5 cm to 1.0 cm (breadth) were divided into small pieces and inoculated in the culture tubes comprising the composition of the present disclosure for induction of somatic embryogenesis.
The culture tubes showing the developed somatic embryoids were transferred to composition of the present disclosure for somatic embryo maturation and incubated in light culture room for about 16 hours under photoperiod (provided by cool while fluorescent lamp) and under dark for about 8 hours at a temperature of about 25±1° C. This process is continued until somatic embryos get matured and small shoots are visible.
Regeneration of embryogenic calli or embryoids was stimulated and maintained on various combinations of MSB media. Regenerated shoots were transferred to rooting medium for root development.
Table 3 illustrates the effect of different concentration of IBA individually and in combination with BAP and Kinetin of different concentrations on plant regeneration from embryogenic calli of Jatropha anthers.

Experiment [3] concerns matured embryoids or small plantlets of Jatropha. The experiment in a line: Embryo germination and rooting of seedling. The procedure:
The matured embryoids with the photoperiod of 16 hrs light and 8 hrs dark or small plantlets were transferred to the composition of the present disclosure and incubated at temperature ranging from about 25° C. to 28° C. for period of about 25 days to 30 days, for germination, for proliferation of roots and further elongation of shoots.
Table 4 illustrates the effect of different concentrations of IBA individually and in combination of with various concentrations of phloroglucinol and GA3 on embryo germination and rooting of seedling. Among the tested concentrations, IBA-0.1 mg/l, phloroglucinol—0.5 mg/l; Gibberellic acid-0.5 mg/l observed to be effective in producing more number of roots (6 roots/shoot) in 80% of the cultures; employing the composition comprising 100 ml of MS macro elements (10× concentration), about 25 ml of MS micro elements (100× concentration) about 10 ml of MS vitamins (200× concentration); citric aicd—40 mg/l; PVP—250 mg/l; Ascorbic acid—55 mg/l; myo inositol—100 mg/L; sucrose 20 g/L. Phytagel 1.5 g/l.

As for `O=C(O)COc1ccc(Cl)cc1Cl` [2,4-D, 2,4-dichloro phenoxy acetic acid], the “Callus formation (%)” value in experiment [1] (2,4-D 0.5 mg/L) is 2%; in experiment [1] (2,4-D 1 mg/L), 2%; in experiment [1] (2,4-D 2 mg/L) it was 10%; in experiment [1] (2,4-D 3 mg/L), 20%; in experiment [1] (2,4-D 4 mg/L), 35%; in experiment [1] (2,4-D 5 mg/L), 45%.
Consider indole butyric acid [IBA], for which the “% of cultures showed regeneration” value in experiment [2] (IBA 0.1 mg/L), in experiment [2] (IBA 0.2 mg/L), in experiment [2] (IBA 1.0 mg/L), in experiment [2] (IBA 2.0 mg/L) and in experiment [2] (IBA 5.0 mg/L) was 0.0% each time. Besides, the “No of Plants/explant” value in experiment [2] (IBA 0.1 mg/L), in experiment [2] (IBA 0.2 mg/L), in experiment [2] (IBA 1.0 mg/L), in experiment [2] (IBA 2.0 mg/L) and in experiment [2] (IBA 5.0 mg/L) was 0 Plants/explant throughout. In addition, the “% of Embryos Germinated” value in experiment [3] (IBA 0.1 mg/L), in experiment [3] (IBA 0.2 mg/L), in experiment [3] (IBA 1.0 mg/L), in experiment [3] (IBA 2.0 mg/L) and in experiment [3] (IBA 5.0 mg/L) was 0.0% in each case. Moreover, the No. of roots/shoot in experiment [3] (IBA 0.1 mg/L), in experiment [3] (IBA 0.2 mg/L), in experiment [3] (IBA 1.0 mg/L), in experiment [3] (IBA 2.0 mg/L) and in experiment [3] (IBA 5.0 mg/L) was 0 roots/shoot in each case.

For the origin of these results see patent US20180192601A1, “Composition and Process for Producing Plants Using Anthers of Jatropha Species” (Reliance Industries Limited, priority 2017, published 2018).
